For orientation: inhibition means the relative decrease from the control value, in per cent. A word on the MIC: it is the lowest concentration that inhibits growth of the organism. A low value points to inhibition by little substance. For orientation: logP means the decadic logarithm of the partition coefficient of the neutral form, usually between octanol and water. Read a high logP as higher lipophilicity. The IC50 is the concentration at which inhibition is half-maximal.

Values after ≈ are worked out from the molar mass of the structure shown. Active and inactive are the calls of the source. The calls are words filed in the database; no cut-off is given here. Some results are limits rather than exact numbers.

The text below walks through data of ChEMBL document CHEMBL4610027, “Identification of Mycobacterium tuberculosis CtpF as a target for designing new antituberculous compounds” (Bioorg Med Chem, 2020).

In data set [1] the test system is Mycobacterium tuberculosis. In words: Antimycobacterial activity against Mycobacterium tuberculosis H37Rv assessed as inhibition of bacterial growth at MIC incubated for 21 days by colony formation assay relative to control. It counts as functional.
Data set [2] is described as follows: Hemolytic activity against human erythrocytes assessed as hemolysis at 100 ug/ml incubated for 2 hrs by spectrophotometric analysis. The class given is ADME, cell-based, Erythrocyte. As to conditions: read-out: Activity.
The nature of data set [3]: Cytotoxicity against mouse MHS cells assessed as cell death at 100 ug/ml incubated for 48 hrs by crystal violet staining based spectrophotometric analysis relative to control.
Data set [4] relates to Mycobacterium tuberculosis H37Ra. Nature of the data set: Inhibition of calcium stimulated Mycobacterium tuberculosis H37Ra CtpF ATPase activity at 100 uM using Na2ATP as substrate preincubated for 30 mins followed by substrate addition and measured after 30 mins by colorimetric analysis relative to control.
The subject of data set [5] is Mycobacterium tuberculosis. In words: Antimycobacterial activity against Mycobacterium tuberculosis H37Rv incubated for 6 days by resazurin dye-based colorimetric method. As to conditions: 144 h. It counts as functional.
Data set [6] is described as follows: Octanol/water partition coefficient, log P of the compound. It counts as physicochemical.
Data set [7] in a line: (§1) Inhibition of calcium stimulated Mycobacterium tuberculosis H37Ra CtpF ATPase activity using Na2ATP as substrate preincubated for 30 mins followed by substrate addition and measured after 30 mins by colorimetric analysis.
The test system of data set [8] is Mycobacterium tuberculosis. In words: Potency index, ratio of CPA MIC to test compound MIC for Mycobacterium tuberculosis H37Rv. It counts as functional.
The test system of data set [9] is Listeria monocytogenes. In words: Inhibition of Listeria monocytogenes Ca2+ ATPase.
Data set [10] has as its system Mycobacterium tuberculosis H37Ra. The description is as §1.
Data set [11] can be described thus: Inhibition of Bacillus cereus Ca2+ ATPase.

`O=C(CCCC[C@@H]1SC[C@@H]2NC(=O)N[C@@H]21)NCc1cn(-c2ccccc2)nc1-c1ccccc1`: the “inhibition (INH)” value in data set [1] stood at 29.5%. Moreover, the hemolysis at 2 h, 100 ug/ml in data set [2] is 2.4%. Moreover, the Activity in [3] is given as 30%. In data set [4], the inhibition was 48.2%. In data set [5], this compound displayed a minimal inhibitory concentration (MIC) of 100 µg/mL (≈ 210 µM). Also, in data set [6], the logP is 3.34. Also, the half-maximal inhibitory concentration (IC50) in [7] came to 4.1 µM.

As to `COCC(=O)Nc1c(C(=O)OC)n(CCC(C)C)c2ncc(N[C@@H](C)C(C)(C)O)cc12`, the “inhibition (INH)” value in [1] came to 60.7%. Further, the hemolysis at 2 h, 100 ug/ml in data set [2] amounted to 0.6%. The Activity in data set [3] is listed as 19.8%. The compound further yielded an MIC in [5] of 50 µg/mL (≈ 115 µM). Also, the log partition coefficient (logP) in [6] worked out at 3.32. In addition, the Ratio in data set [8] was determined as 0.5. Also, in [7], the concentration for half-maximal inhibition (IC50) came to 8 µM.

Take `C[C@@H](OC(=O)CCCNC1=NS(=O)(=O)c2ccccc21)C(=O)c1c[nH]c2ccccc12`: the “inhibition (INH)” value in [1] is given as 37.3%. Also, the hemolysis at 2 h, 100 ug/ml in [2] was determined as 2.1%. Besides, the Activity in data set [3] stood at 31.6%. Further, in [5], 100 µg/mL (≈ 228 µM) was the least that counted as inhibitory (MIC). In addition, the logP in data set [6] worked out at 1.82. Moreover, in data set [7], the 50% inhibitory concentration (IC50) was determined as 11.8 µM.

For the compound `CCCCC(=O)Nc1cccc(C(=O)NCCCNc2cccnc2)c1`, the “inhibition (INH)” value in data set [1] was 52.9%. Further, the hemolysis at 2 h, 100 ug/ml in data set [2] came to 1.2%. The Activity in data set [3] turned out to be 21.4%. The inhibition in data set [4] was 46.9%. Besides, the MIC in data set [5] was 100 µg/mL (≈ 282 µM). In data set [6], this compound gave a log partition coefficient (logP) of 2.91. In addition, in data set [7], the IC50 worked out at 4.2 µM.

In data set [9], `CC(=O)C1=C(O)[C@@H]2[C@H]3c4c[nH]c5cccc(c45)C[C@H]3C(C)(C)N2C1=O` [CYCLOPIAZONIC ACID] had an INH of 918 µM. In addition, the “inhibition (INH)” value in [1] is reported as 29.9%. Also, the hemolysis at 2 h, 100 ug/ml in [2] was 6.6%. Also, in data set [3], the Activity was determined as 50.8%. Besides, the MIC in data set [5] amounted to 100 µg/mL (≈ 297 µM). Further, the logP in data set [6] was determined as 2.21. The IC50 in data set [7] was 7.2 µM; in data set [11], 4 µM. Moreover, in data set [10], the inhibition entry is “Dose-dependent effect”.

On to `NS(=O)(=O)[C@H]1CC=C(CNC(=O)CCCc2c[nH]c3ccccc23)S1`, for which the “inhibition (INH)” value in [1] stood at 64%. Further, the hemolysis at 2 h, 100 ug/ml in data set [2] came to 2%. Moreover, the Activity in data set [3] is on record as 12.9%. Moreover, in [4], the inhibition came to 44.9%. Further, inhibition of growth in data set [5] (MIC) required 50 µg/mL (≈ 132 µM). This compound also displayed a log partition coefficient (logP) in data set [6] of 1.68. Further, in data set [8], the Ratio stood at 0.5. Moreover, the IC50 in data set [7] worked out at 4.4 µM.

Regarding `CCC[C@H](C)NC(=O)CSc1nc2cc(S(=O)(=O)Nc3ccccc3OC)ccc2o1`, in data set [1], the inhibition entry was “inactive”. Moreover, the hemolysis at 2 h, 100 ug/ml in data set [2] stood at 1%. In addition, the Activity in [3] was found to be 39.5%. Besides, in data set [5], the MIC was over 200 µg/mL. For the same compound, the log partition coefficient (logP) in data set [6] was 4.08. For the same compound, the half-maximal inhibitory concentration (IC50) in [7] is 35.9 µM.
